The numbers were not newly measured in patent US20250190808A1, “DEVICE AND METHOD FOR IM[…] TR[…] NETWORK FOR T[…] SEQUENCE, AND TRAINING DEVICE AND METHOD USING SAME” (LG MANAGEMENT DEVELOPMENT INSTITUTE CO., LTD., priority 2022, published 2025), which cites them from elsewhere.

Read-outs that look alike come from different tables or passages of the source.

One series concerns MHC TYPE A*0101. As to conditions: read-out: MHC BINDING (IC50).
Another series has as its system MHC TYPE A*0204. The conditions noted are these: read-out: MHC BINDING (IC50).
A further series addresses MHC TYPE A*0201 (Homo sapiens, UniProt P04439, D140Y/D185E/D98H/E176V/E277Q/G131W/G231S/I119V/I121R/I166T/I218V/L300P/L318F/N151K/N90K/P208A/P217A/Q86G/Q94H/R138H/R169H/T345S). The conditions noted are these: read-out: MHC BINDING (IC50).
In another series the test system is MHC TYPE B*0101. The conditions noted are these: read-out: MHC BINDING (IC50).

For GQIVTMFEA, in the series on T-cell (MHC type A*0101), the “ACTIVATION OF T-CELL” value is “Negative”. For the same sequence, in the series on MHC TYPE A*0101, the IC50 – broadly, the concentration that gives 50% inhibition – is less than 0.1 µM.

For the sequence MFEALPHII, in the series with MHC TYPE A*0204, the IC50 is 12 µM.

Turning to MGQIVTMFE, the results for the IC50 at MHC TYPE A*0201 and in the series with MHC TYPE B*0101 were 0.021 µM and more than 20 µM, respectively. The “ACTIVATION OF T-CELL” value in the series on T-cell (MHC type A*0201) was “Positive”.
